According to patent US20230085307A1, “PYRIDAZINONE COMPOUND AND HERBICIDE” (NISSAN CHEMICAL CORPORATION, priority 2019, published 2023):

How the values were obtained:
[1] = tested on: late watergrass; test: Test Example 1: herbicidal activity, application before weed generation under submerged conditions (Table 16, symbol A); assay type: in vivo, late watergrass (Echinochloa oryzicola); conditions: 320 g/ha applied herbicide
In short: (§1)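 Submerged Wagner pots (alluvial soil, 4 cm water) sown with weed seeds and planted with 2.5-leaf rice seedlings; emulsifiable concentrate diluted in water applied to water surface on sowing day. Held in greenhouse at 25-30 °C; injury scored 0-5 by herbicidal rate after three weeks.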

[2] = tested on: Japanese bulrush; test: Test Example 1: herbicidal activity, application before weed generation under submerged conditions (Table 16, symbol B); assay type: in vivo, Japanese bulrush (Schoenoplectus juncoides); conditions: 320 g/ha applied herbicide
In short: as §1

[3] = tested on: oval-leafed pondweed; test: Test Example 1: herbicidal activity, application before weed generation under submerged conditions (Table 16, symbol C); assay type: in vivo, oval-leafed pondweed (Monochoria vaginalis); conditions: 320 g/ha applied herbicide
In short: as §1

[4] = tested on: barnyard grass; test: Test Example 3: herbicidal effect by foliage application, Wagner pot (Table 18, symbol H); assay type: in vivo, barnyard grass (Echinochloa crus-galli); conditions: 320 g/ha
In short: (§2)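 Plants were sown in alluvial soil held under 0.1–0.5 cm standing water and grown 14 days in a greenhouse at 25–30 °C. An emulsifiable formulation, water-diluted to the set dose, was then sprayed onto the foliage, and effects were scored three weeks later using previously defined criteria.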

[5] = tested on: Chinese sprangletop; test: Test Example 3: herbicidal effect by foliage application, Wagner pot (Table 18, symbol D); assay type: in vivo, chinese sprangletop (Leptochloa chinensis); conditions: 320 g/ha
In short: as §2

[6] = tested on: rice flat sedge; test: Test Example 3: herbicidal effect by foliage application, Wagner pot (Table 18, symbol E); assay type: in vivo, rice flat sedge (Cyperus iria); conditions: 320 g/ha
In short: as §2

[7] = tested on: southern crabgrass; test: Test Example 4: herbicidal effect by soil treatment (Table 19, symbol F); assay type: in vivo, southern crabgrass (Digitaria ciliaris); conditions: amount of applied herbicide 320 g/ha
In short: (§3)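 Seeds were sown in sterilized diluvial soil and covered with about 1.5 cm of soil. An emulsion formulation diluted with water to a predetermined herbicide amount was sprayed evenly onto the soil surface. Plants grew in a greenhouse at 25° C. to 30° C., and the effect was scored three weeks after application using criteria from an earlier test.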

[8] = tested on: green foxtail; test: Test Example 4: herbicidal effect by soil treatment (Table 19, symbol G); assay type: in vivo, green foxtail (Setaria viridis); conditions: amount of applied herbicide 320 g/ha
In short: as §3

[9] = tested on: barnyard grass; test: Test Example 4: herbicidal effect by soil treatment (Table 19, symbol H); assay type: in vivo, barnyard grass (Echinochloa crus-galli); conditions: amount of applied herbicide 320 g/ha
In short: as §3

[10] = tested on: wild oat; test: Test Example 4: herbicidal effect by soil treatment (Table 19, symbol I); assay type: in vivo, wild oat (Avena fatua); conditions: amount of applied herbicide 320 g/ha
In short: as §3

[11] = tested on: blackgrass; test: Test Example 4: herbicidal effect by soil treatment (Table 19, symbol J); assay type: in vivo, blackgrass (Alopecurus myosuroides); conditions: amount of applied herbicide 320 g/ha
In short: as §3

[12] = tested on: Italian ryegrass; test: Test Example 4: herbicidal effect by soil treatment (Table 19, symbol K); assay type: in vivo, Italian ryegrass (Lolium multiflorum); conditions: amount of applied herbicide 320 g/ha
In short: as §3

[13] = tested on: windgrass; test: Test Example 4: herbicidal effect by soil treatment (Table 19, symbol L); assay type: in vivo, windgrass (Apera spica-venti); conditions: amount of applied herbicide 320 g/ha
In short: as §3

[14] = tested on: velvetleaf; test: Test Example 4: herbicidal effect by soil treatment (Table 19, symbol M); assay type: in vivo, velvetleaf (Abutilon theophrasti); conditions: amount of applied herbicide 320 g/ha
In short: as §3

[15] = tested on: redroot pigweed; test: Test Example 4: herbicidal effect by soil treatment (Table 19, symbol N); assay type: in vivo, redroot pigweed (Amaranthus retroflexus); conditions: amount of applied herbicide 320 g/ha
In short: as §3

[16] = tested on: lambsquarters; test: Test Example 4: herbicidal effect by soil treatment (Table 19, symbol O); assay type: in vivo, lambsquarters (Chenopodium album); conditions: amount of applied herbicide 320 g/ha
In short: as §3

[17] = tested on: chickweed; test: Test Example 4: herbicidal effect by soil treatment (Table 19, symbol P); assay type: in vivo, common chickweed (Stellaria media); conditions: amount of applied herbicide 320 g/ha
In short: as §3

[18] = tested on: false cleavers; test: Test Example 4: herbicidal effect by soil treatment (Table 19, symbol Q); assay type: in vivo, false cleavers (Galium spurium); conditions: amount of applied herbicide 320 g/ha
In short: as §3

[19] = tested on: persian speedwell; test: Test Example 4: herbicidal effect by soil treatment (Table 19, symbol R); assay type: in vivo, Persian speedwell (Veronica persica); conditions: amount of applied herbicide 320 g/ha
In short: as §3

[20] = tested on: southern crabgrass; test: Test Example 5: herbicidal effect by foliage application, plastic box (Table 20, symbol F); assay type: in vivo, southern crabgrass (Digitaria ciliaris); conditions: foliage application, 320 g/ha, three weeks after application
In short: (§4)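 Plants sown in sterilized diluvial soil and grown 14 days in a greenhouse at 25° C to 30° C, then sprayed on the foliage with the compound's emulsion diluted in water to a predetermined herbicide amount. Injury to weeds and crops scored three weeks after application on a visual rating scale.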

[21] = tested on: green foxtail; test: Test Example 5: herbicidal effect by foliage application, plastic box (Table 20, symbol G); assay type: in vivo, green foxtail (Setaria viridis); conditions: foliage application, 320 g/ha, three weeks after application
In short: as §4

[22] = tested on: barnyard grass; test: Test Example 5: herbicidal effect by foliage application, plastic box (Table 20, symbol H); assay type: in vivo, barnyard grass (Echinochloa crus-galli); conditions: foliage application, 320 g/ha, three weeks after application
In short: as §4

[23] = tested on: wild oat; test: Test Example 5: herbicidal effect by foliage application, plastic box (Table 20, symbol I); assay type: in vivo, wild oat (Avena fatua); conditions: foliage application, 320 g/ha, three weeks after application
In short: as §4

[24] = tested on: blackgrass; test: Test Example 5: herbicidal effect by foliage application, plastic box (Table 20, symbol J); assay type: in vivo, blackgrass (Alopecurus myosuroides); conditions: foliage application, 320 g/ha, three weeks after application
In short: as §4

[25] = tested on: Italian ryegrass; test: Test Example 5: herbicidal effect by foliage application, plastic box (Table 20, symbol K); assay type: in vivo, Italian ryegrass (Lolium multiflorum); conditions: foliage application, 320 g/ha, three weeks after application
In short: as §4

[26] = tested on: windgrass; test: Test Example 5: herbicidal effect by foliage application, plastic box (Table 20, symbol L); assay type: in vivo, windgrass (Apera spica-venti); conditions: foliage application, 320 g/ha, three weeks after application
In short: as §4

[27] = tested on: velvetleaf; test: Test Example 5: herbicidal effect by foliage application, plastic box (Table 20, symbol M); assay type: in vivo, velvetleaf (Abutilon theophrasti); conditions: foliage application, 320 g/ha, three weeks after application
In short: as §4

[28] = tested on: redroot pigweed; test: Test Example 5: herbicidal effect by foliage application, plastic box (Table 20, symbol N); assay type: in vivo, redroot pigweed (Amaranthus retroflexus); conditions: foliage application, 320 g/ha, three weeks after application
In short: as §4

[29] = tested on: lambsquarters; test: Test Example 5: herbicidal effect by foliage application, plastic box (Table 20, symbol O); assay type: in vivo, lambsquarters (Chenopodium album); conditions: foliage application, 320 g/ha, three weeks after application
In short: as §4

[30] = tested on: chickweed; test: Test Example 5: herbicidal effect by foliage application, plastic box (Table 20, symbol P); assay type: in vivo, common chickweed (Stellaria media); conditions: foliage application, 320 g/ha, three weeks after application
In short: as §4

[31] = tested on: false cleavers; test: Test Example 5: herbicidal effect by foliage application, plastic box (Table 20, symbol Q); assay type: in vivo, false cleavers (Galium spurium); conditions: foliage application, 320 g/ha, three weeks after application
In short: as §4

[32] = tested on: persian speedwell; test: Test Example 5: herbicidal effect by foliage application, plastic box (Table 20, symbol R); assay type: in vivo, Persian speedwell (Veronica persica); conditions: foliage application, 320 g/ha, three weeks after application
In short: as §4

SMILES: COc1ccc(-c2sc3ccccc3c2-c2c(O)c(C)nn(C)c2=O)cc1F [1-049]
- Herbicidal effect on A: late watergrass (grade 0-5) [1]: 4 (Herbicidal rate of 70% or more and less than 90%)
- Herbicidal effect on B: Japanese bulrush (grade 0-5) [2]: 1 (Herbicidal rate of 5% or more and less than 20%)
- Herbicidal effect on C: oval-leafed pondweed (grade 0-5) [3]: 0 (Herbicidal rate of 5% or less (almost no effect))
- herbicidal effect on H (barnyard grass), rating 0-5 [4]: 5 (Herbicidal rate of 90% or more (almost completely withered))
- herbicidal effect on D (Chinese sprangletop), rating 0-5 [5]: 3 (Herbicidal rate of 40% or more and less than 70%)
- herbicidal effect on E (rice flat sedge), rating 0-5 [6]: 5 (Herbicidal rate of 90% or more (almost completely withered))
- herbicidal effect rating, F: southern crabgrass [7]: 2 (Herbicidal rate of 20% or more and less than 40%)
- herbicidal effect rating, G: green foxtail [8]: 3 (Herbicidal rate of 40% or more and less than 70%)
- herbicidal effect rating, H: barnyard grass [9]: 3 (Herbicidal rate of 40% or more and less than 70%)
- herbicidal effect rating, I: wild oat [10]: 0 (Herbicidal rate of 5% or less (almost no effect))
- herbicidal effect rating, J: blackgrass [11]: 0 (Herbicidal rate of 5% or less (almost no effect))
- herbicidal effect rating, K: Italian ryegrass [12]: 0 (Herbicidal rate of 5% or less (almost no effect))
- herbicidal effect rating, L: windgrass [13]: 0 (Herbicidal rate of 5% or less (almost no effect))
- herbicidal effect rating, M: velvetleaf [14]: 0 (Herbicidal rate of 5% or less (almost no effect))
- herbicidal effect rating, N: redroot pigweed [15]: 4 (Herbicidal rate of 70% or more and less than 90%)
- herbicidal effect rating, O: lambsquarters [16]: 3 (Herbicidal rate of 40% or more and less than 70%)
- herbicidal effect rating, P: chickweed [17]: 3 (Herbicidal rate of 40% or more and less than 70%)
- herbicidal effect rating, Q: false cleavers [18]: 0 (Herbicidal rate of 5% or less (almost no effect))
- herbicidal effect rating, R: persian speedwell [19]: 4 (Herbicidal rate of 70% or more and less than 90%)
- herbicidal effect grade, F: southern crabgrass [20]: 4 (Herbicidal rate of 70% or more and less than 90%)
- herbicidal effect grade, G: green foxtail [21]: 4 (Herbicidal rate of 70% or more and less than 90%)
- herbicidal effect grade, H: barnyard grass [22]: 4 (Herbicidal rate of 70% or more and less than 90%)
- herbicidal effect grade, I: wild oat [23]: 1 (Herbicidal rate of 5% or more and less than 20%)
- herbicidal effect grade, J: blackgrass [24]: 0 (Herbicidal rate of 5% or less (almost no effect))
- herbicidal effect grade, K: Italian ryegrass [25]: 4 (Herbicidal rate of 70% or more and less than 90%)
- herbicidal effect grade, L: windgrass [26]: 0 (Herbicidal rate of 5% or less (almost no effect))
- herbicidal effect grade, M: velvetleaf [27]: 5 (Herbicidal rate of 90% or more (almost completely withered))
- herbicidal effect grade, N: redroot pigweed [28]: 3 (Herbicidal rate of 40% or more and less than 70%)
- herbicidal effect grade, O: lambsquarters [29]: 3 (Herbicidal rate of 40% or more and less than 70%)
- herbicidal effect grade, P: chickweed [30]: 5 (Herbicidal rate of 90% or more (almost completely withered))
- herbicidal effect grade, Q: false cleavers [31]: 3 (Herbicidal rate of 40% or more and less than 70%)
- herbicidal effect grade, R: persian speedwell [32]: 5 (Herbicidal rate of 90% or more (almost completely withered))
